The values that follow come from US6855707B2, “Method for the treatment of lipid and glucose metabolism disorders” (Pliva D.D., priority 1996, dated 2005).

Experiment [1] addresses T1, HMG-CoA reductase (Homo sapiens, UniProt P04035).
T1 sequence (P04035 1-888): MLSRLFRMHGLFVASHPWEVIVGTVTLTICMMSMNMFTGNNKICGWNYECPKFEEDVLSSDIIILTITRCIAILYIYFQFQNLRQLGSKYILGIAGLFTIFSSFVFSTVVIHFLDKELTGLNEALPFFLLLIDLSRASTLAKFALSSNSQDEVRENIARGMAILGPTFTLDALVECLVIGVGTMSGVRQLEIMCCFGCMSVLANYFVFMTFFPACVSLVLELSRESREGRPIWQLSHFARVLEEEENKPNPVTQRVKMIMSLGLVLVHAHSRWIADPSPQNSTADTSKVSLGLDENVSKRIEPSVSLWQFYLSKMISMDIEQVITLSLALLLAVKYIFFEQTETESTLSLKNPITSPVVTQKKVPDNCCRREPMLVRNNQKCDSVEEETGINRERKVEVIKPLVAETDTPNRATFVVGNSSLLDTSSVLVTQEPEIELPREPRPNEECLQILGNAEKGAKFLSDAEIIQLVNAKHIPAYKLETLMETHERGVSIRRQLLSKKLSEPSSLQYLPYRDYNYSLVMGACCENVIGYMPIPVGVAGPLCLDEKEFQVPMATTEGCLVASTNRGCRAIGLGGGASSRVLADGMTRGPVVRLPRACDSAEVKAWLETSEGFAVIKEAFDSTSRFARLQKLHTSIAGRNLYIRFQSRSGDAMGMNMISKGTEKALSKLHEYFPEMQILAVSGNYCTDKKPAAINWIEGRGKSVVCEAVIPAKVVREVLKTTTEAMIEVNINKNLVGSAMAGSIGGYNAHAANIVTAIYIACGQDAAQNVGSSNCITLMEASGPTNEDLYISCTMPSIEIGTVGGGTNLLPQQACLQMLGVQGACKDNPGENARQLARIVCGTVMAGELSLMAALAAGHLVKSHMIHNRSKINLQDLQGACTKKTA
Particulars: in vivo; cited from earlier work.

Experiment [2] relates to C57BL/6 ob/ob mice. Kind of experiment: Example 2: two-week treatment of C57BL/6 ob/ob mice at 1 HALO. Format: in vivo. The conditions noted are these: for reduction of plasma free fatty acid level / reduction of plasma glucose concentration / reduction of plasma insulin level / reduction of plasma triglyceride level: mouse, in vivo; for Food Consumption / Plasma FFA / Plasma Glucose / Plasma Insulin / Plasma TG / Whole Body Lipid-Glycerol (% BW) / Whole Body Lipid-Glycerol (g) / Whole Body Protein (% BW) / Whole Body Protein (g) / Final Body Weight: ob/ob mice, two weeks; for Final Body Weight: sacrificed 24-26 hours after last treatment; for reducing body weight gain: single drug 10 mg/kg, two weeks at 1 HALO. On the procedure:
Different groups of 6-week old C57BL/6 ob/ob mice (lacking a functional leptin protein) were treated with either bromocriptine (“BC”) (10 mg/kg BW), SKF38393 (“SKF”) (10 mg/kg BW), both drugs, or vehicle for two weeks at 1 hour after light onset (HALO). Animals were held on 12-hour daily photoperiods and allowed to feed ad libitum. Food consumption was monitored daily for 3 days before the initiation of treatment throughout the 14-day treatment period. Animals were sacrificed between 1 and 3 HALO on the day following the final treatment (i.e., 24-26 hours after last injection) and plasma was collected for the analyses of insulin, glucose, and lipids while the carcasses were solubilized in ethanolic KOH and analyzed for protein and lipid content. Bromocriptine and SKF38393, individually, were ineffective in reducing body weight gain where as SKF, but not BC, reduced food consumption (19%, P<0.01). However, the combined treatment of bromocriptine and SKF38393 (BC/SKF) decreased food consumption by 46% (from 4.8±0.2 to 2.6±g/day; P<0.001) and body weight by 15% (from a 3.2 g increase in controls to a 4.3 g decrease; P<0.005) in 14 days of treatment (FIG. 16). Relative to controls, in absolute terms, the lipid content of the BC/SKF treated animals was decreased by 40% (from 4.2±0.2 to 2.5±0.3 g glycerol/animal; P<0.0003) whereas the protein content increased 8% (from 3.7±0.08 to 4.0±0.08 g/animal; P<0.05). […] This effect on body composition was observed by SKF (P<0.003) or BC (P<0.04) treatments alone, although to a lesser extent than by BC/SKF combination (P<0.05).

The subject of experiment [3] is ob/ob mice. The experiment in a line: Example 1: two-week treatment of female ob/ob mice (40-70 g) at light onset. Type of experiment: in vivo. The conditions noted are these: single drug, two weeks at light onset. On the procedure: Female ob/ob mice (40-70 g bw) were treated for two weeks with either 1) bromocriptine (11 mg/kg) at light onset, 2) SKF38393 (20 mg/kg) at light onset, 3) bromocriptine plus SKF38393 at light onset, or 4) vehicle at light onset.

Experiment [4] is described as follows: timed bromocriptine monotherapy, diastolic blood pressure. Type of experiment: in vivo. Particulars: humans, 4.8 mg/day at 8:00 AM. The source says:
The benefits of the invention are not limited to modifying and regulating lipid and glucose metabolism. Other bodily functions, such as blood pressure, can be beneficially modified and regulated by timed administration of a D2 agonist (as monotherapy) in the dosage range disclosed above. […] Conjoined administration of a dopamine D1 agonist and […]

As to `CC[C@H](C)C(=O)O[C@H]1C[C@@H](C)C=C2C=C[C@H](C)[C@H](CC[C@@H]3C[C@@H](O)CC(=O)O3)[C@H]21` [lovastatin], the “increase in HDL concentrations” value in experiment [1] was 5-10%.
Take `Oc1cc2c(cc1O)C(c1ccccc1)CNCC2` (centres unmarked) [SKF38393]: the “reduction of food consumption” value in experiment [2] (BC 10 mg/kg, SKF 10 mg/kg, 14 days) is 19%. In experiment [2], the “reduction of plasma free fatty acid level” value was “neither BC nor SKF individually, reduced”; the “reduction of plasma glucose concentration” value is given as 43%; the “reduction of plasma insulin level” value is on record as “not affected”; the “reduction of plasma triglyceride level” value is on record as “neither BC nor SKF individually, reduced”. Further, in experiment [2], the “Food Consumption” value was 3.9 ± 0.07^3,4,5 g/day, the “Plasma FFA” value is listed as 671 ± 36^3 uM, the “Plasma Glucose” value was 218 ± 22^2 mg/dl and the “Plasma Insulin” value worked out at 50 ± 13 ng/mL. Also, in experiment [2], the “Plasma TG” value is given as 234 ± 22^1 mg/dl, the “Whole Body Lipid-Glycerol (% BW)” value was 6.0 ± 0.2^1 % BW, the “Whole Body Lipid-Glycerol (g)” value was 3.1 ± 0.1^1 g and the “Whole Body Protein (% BW)” value was 7.9 ± 0.1^1 % BW. In addition, in experiment [2], the “Whole Body Protein (g)” value is listed as 4.1 ± 0.04^2 g, the “Final Body Weight” value is on record as 52 ± 0.7^2 g and the “reducing body weight gain” value is on record as “ineffective”. Besides, the “reductions in hyperphagia, body weight gain, and obesity” value in experiment [3] is on record as “moderate reductions”.
For the compound `CC(C)C[C@H]1C(=O)N2CCC[C@H]2[C@]2(O)O[C@](NC(=O)[C@@H]3C=C4c5cccc6[nH]c(Br)c(c56)C[C@H]4N(C)C3)(C(C)C)C(=O)N12` [bromocriptine, 2-bromo-α-ergocriptine], in experiment [2], the “reduction of plasma free fatty acid level” value is reported as “neither BC nor SKF individually, reduced”; the “reduction of plasma glucose concentration” value was found to be 31%; the “reduction of plasma insulin level” value turned out to be 50%; the “reduction of plasma triglyceride level” value was “neither BC nor SKF individually, reduced”. In experiment [2], the “Food Consumption” value is given as 4.5 ± 0.2^2,5 g/day, the “Plasma FFA” value was 818 ± 64^2 uM, the “Plasma Glucose” value is reported as 262 ± 25^1 mg/dl and the “Plasma Insulin” value is given as 30 ± 4^2 ng/ml. For the same compound, in experiment [2], the “Plasma TG” value worked out at 405 ± 101 mg/dL, the “Whole Body Lipid-Glycerol (% BW)” value is on record as 7.0 ± 0.2^1 % BW, the “Whole Body Lipid-Glycerol (g)” value is given as 3.7 ± 0.1^1 g and the “Whole Body Protein (% BW)” value was 7.5 ± 0.1^1 % BW. Besides, in experiment [2], the “Whole Body Protein (g)” value was 4.0 ± 0.1^1 g, the “Final Body Weight” value is given as 53 ± 0.7^2 g and the “reducing body weight gain” value is given as “ineffective”. Also, the “reductions in hyperphagia, body weight gain, and obesity” value in experiment [3] is “moderate reductions”. Further, in experiment [4], the diastolic blood pressure result is on record as “decrease significantly”.
